This test concerns the target VEGFR2, unphosphorylated (Homo sapiens (Human), UniProt P35968). Kind of test: VEGFR ADP GLO Assay. Format: biochemical.

Each structure is given as a SMILES string.

Chain of VEGFR2, unphosphorylated (P35968 20-1356): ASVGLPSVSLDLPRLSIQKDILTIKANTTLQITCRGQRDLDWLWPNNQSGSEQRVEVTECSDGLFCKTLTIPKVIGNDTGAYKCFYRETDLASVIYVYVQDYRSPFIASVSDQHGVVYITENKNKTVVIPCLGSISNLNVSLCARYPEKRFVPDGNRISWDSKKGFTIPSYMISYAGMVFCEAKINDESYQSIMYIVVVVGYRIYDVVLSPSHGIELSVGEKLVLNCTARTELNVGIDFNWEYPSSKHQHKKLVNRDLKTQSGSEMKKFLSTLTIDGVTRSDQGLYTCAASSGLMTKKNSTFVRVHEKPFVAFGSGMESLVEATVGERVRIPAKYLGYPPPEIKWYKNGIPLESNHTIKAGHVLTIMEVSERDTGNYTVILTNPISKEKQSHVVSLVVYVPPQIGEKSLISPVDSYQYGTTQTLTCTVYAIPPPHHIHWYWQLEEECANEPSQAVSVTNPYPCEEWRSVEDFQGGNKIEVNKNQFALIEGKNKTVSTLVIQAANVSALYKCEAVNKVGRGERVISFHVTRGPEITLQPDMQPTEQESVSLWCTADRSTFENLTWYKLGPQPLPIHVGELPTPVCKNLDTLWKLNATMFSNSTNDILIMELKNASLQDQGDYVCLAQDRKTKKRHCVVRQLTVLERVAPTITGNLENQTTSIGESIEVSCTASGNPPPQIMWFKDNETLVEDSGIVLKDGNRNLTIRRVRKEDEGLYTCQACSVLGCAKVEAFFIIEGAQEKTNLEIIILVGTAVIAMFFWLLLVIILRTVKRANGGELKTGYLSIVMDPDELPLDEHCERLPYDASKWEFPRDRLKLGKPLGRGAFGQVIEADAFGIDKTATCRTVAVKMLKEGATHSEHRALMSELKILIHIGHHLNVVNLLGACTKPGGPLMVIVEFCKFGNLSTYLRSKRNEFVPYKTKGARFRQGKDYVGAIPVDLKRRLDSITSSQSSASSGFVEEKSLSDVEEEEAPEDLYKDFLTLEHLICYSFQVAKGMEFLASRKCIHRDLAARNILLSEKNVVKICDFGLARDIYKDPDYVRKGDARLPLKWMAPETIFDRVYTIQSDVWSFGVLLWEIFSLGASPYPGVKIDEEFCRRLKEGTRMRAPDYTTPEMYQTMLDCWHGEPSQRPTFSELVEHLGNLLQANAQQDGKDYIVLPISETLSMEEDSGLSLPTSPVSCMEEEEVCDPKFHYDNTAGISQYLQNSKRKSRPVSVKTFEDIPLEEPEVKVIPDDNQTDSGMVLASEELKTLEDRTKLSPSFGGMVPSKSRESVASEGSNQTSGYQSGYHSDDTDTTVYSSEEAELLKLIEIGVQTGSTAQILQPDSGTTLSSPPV

In the case of `Cc1ncc(NC(=O)CN2CC(C)(C)C2)cc1NC(=O)c1cnn2cc(-c3c(C)nn(C4COC4)c3C)sc12` [Example 425, 2-(3,5-dimethyl-1-(oxetan-3-yl)-1H-pyrazol-4-yl)-N-(5-(2-(3,3-dimethylazetidin-1-yl)acetamido)-2-methylpyridin-3-yl)pyrazolo[5,1-b]thiazole-7-carboxamide], the IC50 was more than 7.5 µM.
Compound `Cc1ncc(NC(=O)CC2CNC2)cc1NC(=O)c1cnn2cc(-c3cnn4c3CCC4)sc12` [Example 426, N-(5-(2-(azetidin-3-yl)acetamido)-2-methylpyridin-3-yl)-2-(5,6-dihydro-4H-pyrrolo[1,2-b]pyrazol-3-yl)pyrazolo[5,1-b]thiazole-7-carboxamide] displayed an IC50 of more than 7.5 µM.
To `Cc1ncc(NC(=O)CC2CN(C)C2)cc1NC(=O)c1cnn2cc(-c3cnn4c3CCC4)sc12` [Example 427, 2-(5,6-dihydro-4H-pyrrolo[1,2-b]pyrazol-3-yl)-N-(2-methyl-5-(2-(1-methylazetidin-3-yl)acetamido)pyridin-3-yl)pyrazolo[5,1-b]thiazole-7-carboxamide] belongs more than 7.5 µM; to `Cc1ncc(NC(=O)CN2CC(C)(C)C2)cc1NC(=O)c1cnn2cc(-c3cnn(C(F)F)c3)sc12` [Example 428, 2-(1-(difluoromethyl)-1H-pyrazol-4-yl)-N-(5-(2-(3,3-dimethylazetidin-1-yl)acetamido)-2-methylpyridin-3-yl)pyrazolo[5,1-b]thiazole-7-carboxamide], more than 7.5 µM; to `Cc1ncc(NC(=O)CN2CC(C)(C)C2)cc1NC(=O)c1cnn2cc(-c3cncnc3)sc12` [Example 429, N-(5-(2-(3,3-dimethylazetidin-1-yl)acetamido)-2-methylpyridin-3-yl)-2-(pyrimidin-5-yl)pyrazolo[5,1-b]thiazole-7-carboxamide], more than 7.5 µM.
Compound `Cc1ncc(NC(=O)CN2CC(C)(C)C2)cc1NC(=O)c1cnn2cc(-c3cn(C)nc3C)sc12` [Example 430, 2-(1,3-Dimethyl-1H-pyrazol-4-yl)-N-(5-(2-(3,3-dimethylazetidin-1-yl)acetamido)-2-methylpyridin-3-yl)pyrazolo[5,1-b]thiazole-7-carboxamide] came in with a concentration for half-maximal inhibition (IC50) of 5.17 µM.
Take `Cc1ncc(NC(=O)CN2C[C@@H](C)O[C@H](C)C2)cc1NC(=O)c1cnn2cc(-c3cn(C)nc3C)sc12` [Example 431]: the IC50 is more than 7.5 µM.
To `Cc1ncc(NC(=O)CN2CC(C)(C)C2)cc1NC(=O)c1cnn2cc(-c3cnn(C)c3C)sc12` [Example 434, 2-(1,5-Dimethyl-1H-pyrazol-4-yl)-N-(5-(2-(3,3-dimethylazetidin-1-yl)acetamido)-2-methylpyridin-3-yl)pyrazolo[5,1-b]thiazole-7-carboxamide] belongs 5.22 µM; to `Cc1ncc(NC(=O)CN2CC(C)(C)C2)cc1NC(=O)c1cnn2cc(-c3cnn(CCS(C)(=O)=O)c3)sc12` [Example 435, N-(5-(2-(3,3-Dimethylazetidin-1-yl)acetamido)-2-methylpyridin-3-yl)-2-(1-(2-(methylsulfonyl)ethyl)-1H-pyrazol-4-yl)pyrazolo[5,1-b]thiazole-7-carboxamide], more than 7.5 µM; to `CCOc1ncccc1-c1cn2ncc(C(=O)Nc3cc(NC(=O)CN4CC(C)(C)C4)cnc3C)c2s1` [Example 436, N-(5-(2-(3,3-Dimethylazetidin-1-yl)acetamido)-2-methylpyridin-3-yl)-2-(2-ethoxypyridin-3-yl)pyrazolo[5,1-b]thiazole-7-carboxamide], 4.3 µM.
To `Cc1ncc(NC(=O)CN2CC(C)(C)C2)cc1NC(=O)c1cnn2cc(-c3cccnc3OC(F)(F)F)sc12` [Example 437, N-(5-(2-(3,3-dimethylazetidin-1-yl)acetamido)-2-methylpyridin-3-yl)-2-(2-(trifluoromethoxy)pyridin-3-yl)pyrazolo[5,1-b]thiazole-7-carboxamide] belongs more than 7.5 µM; to `COC1CN(CC(=O)Nc2cnc(C)c(NC(=O)c3cnn4cc(-c5cn(C)nc5C)sc34)c2)C1` [Example 441, 2-(1,3-Dimethyl-1H-pyrazol-4-yl)-N-(5-(2-(3-methoxyazetidin-1-yl)acetamido)-2-methylpyridin-3-yl)pyrazolo[5,1-b]thiazole-7-carboxamide], more than 7.5 µM; to `COC1(C)CN(CC(=O)Nc2cnc(C)c(NC(=O)c3cnn4cc(-c5cn(C)nc5C)sc34)c2)C1` [Example 442, 2-(1,3-Dimethyl-1H-pyrazol-4-yl)-N-(5-(2-(3-methoxy-3-methylazetidin-1-yl)acetamido)-2-methylpyridin-3-yl)pyrazolo[5,1-b]thiazole-7-carboxamide], more than 7.5 µM.
With `Cc1ncc(NC(=O)CN2CCC[C@H]2C)cc1NC(=O)c1cnn2cc(-c3nn(C)nc3C)sc12` [Example 443, (R)-2-(2,5-dimethyl-2H-1,2,3-triazol-4-yl)-N-(2-methyl-5-(2-(2-methylpyrrolidin-1-yl)acetamido)pyridin-3-yl)pyrazolo[5,1-b]thiazole-7-carboxamide], the IC50 was more than 7.5 µM.
With `Cc1ncc(NC(=O)CN2CCCC2(C)C)cc1NC(=O)c1cnn2cc(-c3cn(C)nc3C)sc12` [Example 444, 2-(1,3-Dimethyl-1H-pyrazol-4-yl)-N-(5-(2-(2,2-dimethylpyrrolidin-1-yl)acetamido)-2-methylpyridin-3-yl)pyrazolo[5,1-b]thiazole-7-carboxamide], the half-maximal inhibitory concentration (IC50) is more than 7.5 µM.
As for `Cc1ncc(NC(=O)CN2CC(C)(C)C2)cc1NC(=O)c1cnn2cc(-c3nn(C)nc3C)sc12` [Example 445, 2-(2,5-Dimethyl-2H-1,2,3-triazol-4-yl)-N-(5-(2-(3,3-dimethylazetidin-1-yl)acetamido)-2-methylpyridin-3-yl)pyrazolo[5,1-b]thiazole-7-carboxamide], the IC50 was more than 7.5 µM.
The compound `Cc1ncc(NC(=O)CN2CCC(C)C2)cc1NC(=O)c1cnn2cc(-c3cn(C)nc3C)sc12` (stereo not shown) [Example 446, 2-(1,3-Dimethyl-1H-pyrazol-4-yl)-N-(2-methyl-5-(2-(3-methylpyrrolidin-1-yl)acetamido)pyridin-3-yl)pyrazolo[5,1-b]thiazole-7-carboxamide] yielded an IC50 of more than 7.5 µM.
To `Cc1ncc(NC(=O)CN2CCCC2(C)C)cc1NC(=O)c1cnn2cc(-c3cnn(CCO)c3)sc12` [Example 447, N-(5-(2-(2,2-dimethylpyrrolidin-1-yl)acetamido)-2-methylpyridin-3-yl)-2-(1-(2-hydroxyethyl)-1H-pyrazol-4-yl)pyrazolo[5,1-b]thiazole-7-carboxamide] belongs more than 7.5 µM; to `Cc1ncc(NC(=O)CN2CCCC2(C)C)cc1NC(=O)c1cnn2cc(-c3cccnc3OCCF)sc12` [Example 448, N-(5-(2-(2,2-dimethylpyrrolidin-1-yl)acetamido)-2-methylpyridin-3-yl)-2-(2-(2-fluoroethoxy)pyridin-3-yl)pyrazolo[5,1-b]thiazole-7-carboxamide], more than 7.5 µM.
To `Cc1ncc(NC(=O)CN2CCCC2(C)C)cc1NC(=O)c1cnn2cc(-c3cccn(CCF)c3=O)sc12` [Example 449, N-(5-(2-(2,2-dimethylpyrrolidin-1-yl)acetamido)-2-methylpyridin-3-yl)-2-(1-(2-fluoroethyl)-2-oxo-1,2-dihydropyridin-3-yl)pyrazolo[5,1-b]thiazole-7-carboxamide] belongs more than 7.5 µM; to `Cc1ncc(C(=O)NCCN2CCCC2(C)C)cc1NC(=O)c1cnn2cc(-c3cnn4c3COCC4)sc12` [Example 450, 2-(6,7-dihydro-4H-pyrazolo[5,1-c][1,4]oxazin-3-yl)-N-(5-((2-(2,2-dimethylpyrrolidin-1-yl)ethyl)carbamoyl)-2-methylpyridin-3-yl)pyrazolo[5,1-b]thiazole-7-carboxamide], more than 7.5 µM; to `COCCn1cc(-c2cn3ncc(C(=O)Nc4cc(NC(=O)C[C@@H]5CCCN5C(C)C)cnc4C)c3s2)cn1` [Example 451, (S)—N-(5-(2-(1-isopropylpyrrolidin-2-yl)acetamido)-2-methylpyridin-3-yl)-2-(1-(2-methoxyethyl)-1H-pyrazol-4-yl)pyrazolo[5,1-b]thiazole-7-carboxamide], more than 7.5 µM.
Under `COCCn1cc(-c2cn3ncc(C(=O)Nc4cc(NC(=O)C5(CN6CCC[C@@H]6C)CC5)cnc4C)c3s2)cn1` [Example 452, (S)-2-(1-(2-methoxyethyl)-1H-pyrazol-4-yl)-N-(2-methyl-5-(1-((2-methylpyrrolidin-1-yl)methyl)cyclopropanecarboxamido)pyridin-3-yl)pyrazolo[5,1-b]thiazole-7-carboxamide] stands more than 7.5 µM; under `Cc1ncc(NC(=O)CNCC2CC2)cc1NC(=O)c1cnn2cc(-c3cnn4c3OCCC4)sc12` [Example 453, N-(5-(2-((cyclopropylmethyl)amino)acetamido)-2-methylpyridin-3-yl)-2-(6,7-dihydro-5H-pyrazolo[5,1-b][1,3]oxazin-3-yl)pyrazolo[5,1-b]thiazole-7-carboxamide], more than 7.5 µM; under `Cc1ncc(NC(=O)CNCC2CC2)cc1NC(=O)c1cnn2cc(-c3cnn4c3CCC4)sc12` [Example 454, N-(5-(2-((cyclopropylmethyl)amino)acetamido)-2-methylpyridin-3-yl)-2-(5,6-dihydro-4H-pyrrolo[1,2-b]pyrazol-3-yl)pyrazolo[5,1-b]thiazole-7-carboxamide], more than 7.5 µM.
In the case of `CCCNCC(=O)Nc1cnc(C)c(NC(=O)c2cnn3cc(-c4cnn5c4OCCC5)sc23)c1` [Example 455, 2-(6,7-dihydro-5H-pyrazolo[5,1-b][1,3]oxazin-3-yl)-N-(2-methyl-5-(2-(propylamino)acetamido)pyridin-3-yl)pyrazolo[5,1-b]thiazole-7-carboxamide], the IC50 was more than 7.5 µM.
`CCCNCC(=O)Nc1cnc(C)c(NC(=O)c2cnn3cc(-c4cnn5c4CCC5)sc23)c1` [Example 456, 2-(5,6-dihydro-4H-pyrrolo[1,2-b]pyrazol-3-yl)-N-(2-methyl-5-(2-(propylamino)acetamido)pyridin-3-yl)pyrazolo[5,1-b]thiazole-7-carboxamide] displayed an IC50 of more than 7.5 µM.
As to `Cc1ncc(NC(=O)CN2CCCC2(C)C)cc1NC(=O)c1cnn2cc(-c3cnn(C(C)(C)CO)c3)sc12` [Example 457, N-(5-(2-(2,2-dimethylpyrrolidin-1-yl)acetamido)-2-methylpyridin-3-yl)-2-(1-(1-hydroxy-2-methylpropan-2-yl)-1H-pyrazol-4-yl)pyrazolo[5,1-b]thiazole-7-carboxamide], the IC50 is more than 7.5 µM.

The term IC50 denotes the concentration at which inhibition is half-maximal. Low values mean greater potency, high ones weaker potency.

These data come from US20240109917A1 (ACTELION PHARMACEUTICALS LTD, priority 2020, published 2024).
